{"source": "patent EP4786487A1", "about": "“PEPTIDE” (Peptidream Inc, priority 2023, dated 2025)", "key": {"Myostatin [1]": {"target": "T1, Myostatin (Homo sapiens, UniProt O14793)", "T1 construct": "active myostatin (also called mature myostatin) is a homodimer consisting of two C-terminal growth factor domains; purchased R&D systems 788-G8/CF", "T1 sequence (O14793 267-375)": "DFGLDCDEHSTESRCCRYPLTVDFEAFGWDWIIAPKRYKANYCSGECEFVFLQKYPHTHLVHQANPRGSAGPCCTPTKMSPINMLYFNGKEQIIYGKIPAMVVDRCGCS", "test": "Reporter gene assay for myostatin signaling in HEK-Blue TGF-β Cells, myostatin", "assay_type": "cell-based", "details": "myostatin 3 ng/mL", "method": "(§1) In this Example, the in vitro activity of the peptide Myostatin_99_v145 (SEQ ID NO: 30) was evaluated using a reporter gene assay for myostatin signaling.\n(§2) HEK-Blue (trademark) TGF-β Cells (hkb-tgfbv2, InvivoGen) were cultured in DMEM High glucose GlutaMAX (10569010, Thermo) containing 10% FBS (Heat-inactivated FBS QUALIFIED, 10270-106, Gibco), […] Normocin (ant-nr-05, InvivoGen), […] Zeocin (ant-zn-05, InvivoGen), and 50 µg/mL Gentamicin (11980-14, Nacalai Tesque). The cultured HEK-Blue (trademark) TGF-β Cells were suspended in an assay medium containing DMEM High glucose GlutaMAX, 50 µg/mL Gentamicin, and 1% bovine serum albumin (A7030, Sigma). The cells were seeded at 4 × 10^4 cells/well onto a 96-well plate (356461, Corning), namely BioCoat poly-D-lysine multi-well plate, and allowed to stand for 30 min.\n(§3) A 4-fold dilution series of the peptide, namely Myostatin_99_v145 (SEQ ID NO: 30), synthesized according to Example 1, the final concentration of which was from 0.006 nmol/L up to a maximum concentration of 0.1 µmol/L for the myostatin inhibitory activity test, was added to a 96-well U-bottom Non-Binding MicroPlate (650901, Greiner). For the GDF-11 or activin A inhibitory activity test, a 4-fold dilution series, the final concentration of which was from 0.12 nmol/L to a maximum concentration of 2 µmol/L, was added to a 96-well U-bottom Non-Binding MicroPlate (650901, Greiner).\n(§4) Subsequently, myostatin (788-G8/CF, R&D systems), GDF-11 (1958-GD-G8/CF, R&D systems), or activin A (338-AC-010/CF, R&D systems) was each added at a final concentration of 3 ng/mL. The plate was sealed with Parafilm, and incubated in a CO2 incubator (37°C, 5% CO2) for 30 min. The samples were added at 50 µL/well to a plate containing HEK-Blue (trademark) TGF-β Cells, and incubated in a CO2 incubator (37°C, 5% CO2) for 24 hours.\n(§5) To each well of a UV-Star µClear 96-well (655801, Greiner), 180 µL of Detection buffer (prepared by diluting, with 17.64 mL of distilled water, 180 µL of QUANTI-Blue buffer and 180 µL of QUANTI-Blue solution) was dispensed. Here, 20 µL of the supernatant of the culture medium was transferred to the above Detection buffer and stirred with a shaker for 1 min. The plate was covered and incubated in a CO2 incubator for 3 to 5 hours, and absorbance was measured (Envision 2104, PerkinElmer, 620 nm/bp 40 nm). Based on the absorbance, IC50 values of the peptide were calculated using software (Prism 9, GraphPad)."}, "Myostatin [2]": {"system": "Myostatin", "test": "Reporter gene assay for myostatin signaling in HEK-Blue TGF-β Cells, myostatin", "assay_type": "cell-based", "method": "as §1, §2, §3, §4, §5"}, "DBA/2 mdx model mice": {"system": "DBA/2 mdx model mice", "test": "Subcutaneously administered peptide, improvement of muscle strength in DBA/2 mdx mice", "assay_type": "in vivo, DBA/2N-mdx mice", "details": "Fig. 5", "method": "In this Example, the effect of the peptide Myostatin_99_v145 (SEQ ID NO: 30) was evaluated on improvement of muscle strength in DMD model mice.\nTo twenty-week-old female DBA/2N-mdx mice (Central Institute for Experimental Medicine and Life Science), Myostatin_99_v145 or solvent control (PBS) was subcutaneously administered once a week for 4 weeks as shown in Table 12. As a Comparative Example, a single intravenous dose of anti-latent myostatin antibody (GYM329-BS) was administered.\n(§6) Using a smart-type grip strength meter for rats and mice (MK-380V; Muromachi Kikai Co., Ltd.), forelimb and hindlimb grip strength measurements were performed on the day of completion of the acclimation period (grouping day), and on Days 7, 14, 21, and 26. The measurements were conducted with individual identification numbers blinded so that the examiner was unaware of the test conditions of the mice. The grip strength was measured seven times consecutively, and the average of five points, excluding the two points: the highest and lowest values, was used as individual data."}, "B10-mdx mice": {"system": "B10-mdx mice", "test": "Orally administered peptide, improvement of muscle strength in B10-mdx mice", "assay_type": "in vivo, C57BL/10-mdx/Jcl mice", "details": "oral administration 65 and 200 mg/kg once a week, 4 times, after fasting; Fig. 6", "method": "In this Example, the effect of the peptide Myostatin_99_v145 (SEQ ID NO: 30) was evaluated on improvement of muscle strength when the peptide was orally administered to DMD model mice.\nB10-mdx mice were used as the DMD model mice. To five-week-old female C57BL/10-mdx/Jcl mice (CLEA Japan, Inc.; NPL 17), the peptide or solvent control (Vehicle) PBS was subcutaneously administered once a week for 4 weeks. In addition, the peptide or the solvent control, namely 30% Labrasol/PBS, was administered orally to the DMD model mice once a week after fasting in a total of 4 times.\nas §6, with “day; 5-week-old),” for “day),”, “Day 7 (6-week-old), Day 14 (7-week-old), Day 20 (8-week-old),” for “Days 7, 14, 21,”, “Day 27 (9-week-old).” for “26.”"}}, "note": "Starred links: 1 amine or outer side, 2 acyl side, 3 side chain; linkers in the order of their positions; H or OH if unused. Positions of bridges follow the written chain, without caps; N, C: chain ends. Non-standard residues stand in square brackets, D forms with d. Residues, ends and D or L forms follow the SMILES beside them. Phe(3-OCH2COOH) = N[C@@H](Cc1cccc(OCC(=O)O)c1)C(=O)O; Phe(4-COOH) = N[C@@H](Cc1ccc(C(=O)O)cc1)C(=O)O; Gly(N(CH2)3COOH) = O=C(O)CCCNCC(=O)O; X1 = CCCCCCC[C@H](N[*:1])C(=O)[*:2]; NMeF = CN[C@@H](Cc1ccccc1)C(=O)O; NMeA = CN[C@@H](C)C(=O)O"}
{"molecule": "CCCCCCC[C@@H]1NC(=O)[C@H](Cc2ccccc2)N(C)C(=O)[C@H](CCCNC(=N)N)NC(=O)[C@H](Cc2ccc(C(=O)O)cc2)NC(=O)[C@H](Cc2cccc(OCC(=O)O)c2)NC(=O)[C@H](C)N(C)C(=O)[C@H]([C@@H](C)CC)NC(=O)[C@H](Cc2ccccc2)N(C)C(=O)[C@H](Cc2ccc(O)cc2)NC(=O)[C@H](Cc2c[nH]c3ccccc23)NC(=O)[C@H](C)NC(=O)CN(CCCC(=O)O)C(=O)CSC[C@H](C(=O)O)NC(=O)[C@H](Cc2ccccc2)N(C)C(=O)[C@H](C)N(C)C1=O", "note": "[Myostatin_99_v145] ({CH2CO}-[Gly(N(CH2)3COOH)]AWY[NMeF]I[NMeA][Phe(3-OCH2COOH)][Phe(4-COOH)]R[NMeF][X1][NMeA][NMeF][dC]-OH; thioether N-15)", "values": [{"measurement": "IC50", "setting": "Myostatin [1]; read-out: IC50 (nmol/L) Myostatin", "result": 0.23, "unit": "nmol/L"}, {"measurement": "IC90", "setting": "Myostatin [1]; read-out: IC90 (nmol/L) Myostatin", "result": 0.64, "unit": "nmol/L"}, {"measurement": "Selectivity (GDF11/myostatin)", "setting": "Myostatin [2]; from IC50", "result": 270}, {"measurement": "Selectivity (GDF11/myostatin)", "setting": "Myostatin [2]; from IC90", "result": "1,088"}, {"measurement": "time-course change in grip strength", "setting": "DBA/2 mdx model mice; 1 and 3 mg/kg subcutaneous once a week for 4 weeks, vs. PBS Vehicle group", "result": "continuous increase in grip strength was observed in a dose-dependent manner"}, {"measurement": "maximum effect (grip strength) compared with GYM329-BS", "setting": "DBA/2 mdx model mice; GYM329-BS 10 mg/kg single intravenous dose", "result": "higher than that of GYM329-BS"}, {"measurement": "time-course change in grip strength", "setting": "B10-mdx mice", "result": "continuous increase in grip strength was observed in a dose-dependent manner"}]}
